Laboratory results reported in patent US20020026053A1, “Novel 3-(substituted) -2- indolinones compounds and use thereof as inhibitors of protein kinase activity” (priority 1997, published 2002).

Tests used:
EGFR = target: T1, EGFR (Homo sapiens, UniProt P00533); assay: Biochemical EGFR Assay; parameters: concentration or dose not given beside the values
T1 construct: endogenous in cells; host or cells: A431 cells (lysate, captured with SUMO1 anti-EGFR antibody)
In short: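 Readout is ABTS absorbance at 410 nm after anti-phosphotyrosine and HRP-antibody detection of EGFR autophosphorylation. The kinase was immunocaptured from A431 lysate, exposed 30 min to test compound diluted 1:10 in TBS, then phosphorylated for 5 min with ATP/MnCl2 before an EDTA stop.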

PDGF-R = PDGF-R Assay (cellular ELISA, U1242 cells); assay type: cell-based; parameters: concentration or dose not given beside the values
In short: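 Cellular ELISA for receptor autophosphorylation: after 2 hr test-compound treatment of serum-free U1242 cells at 37°C, ligand is added for 5–10 min, cells are lysed (HNTG) and receptor captured by specific antibody. Anti-phosphotyrosine plus secondary antibody with ABTS colour read at 410/630 nm, compared with compound-free control cells.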

T1 sequence (P00533 25-1210): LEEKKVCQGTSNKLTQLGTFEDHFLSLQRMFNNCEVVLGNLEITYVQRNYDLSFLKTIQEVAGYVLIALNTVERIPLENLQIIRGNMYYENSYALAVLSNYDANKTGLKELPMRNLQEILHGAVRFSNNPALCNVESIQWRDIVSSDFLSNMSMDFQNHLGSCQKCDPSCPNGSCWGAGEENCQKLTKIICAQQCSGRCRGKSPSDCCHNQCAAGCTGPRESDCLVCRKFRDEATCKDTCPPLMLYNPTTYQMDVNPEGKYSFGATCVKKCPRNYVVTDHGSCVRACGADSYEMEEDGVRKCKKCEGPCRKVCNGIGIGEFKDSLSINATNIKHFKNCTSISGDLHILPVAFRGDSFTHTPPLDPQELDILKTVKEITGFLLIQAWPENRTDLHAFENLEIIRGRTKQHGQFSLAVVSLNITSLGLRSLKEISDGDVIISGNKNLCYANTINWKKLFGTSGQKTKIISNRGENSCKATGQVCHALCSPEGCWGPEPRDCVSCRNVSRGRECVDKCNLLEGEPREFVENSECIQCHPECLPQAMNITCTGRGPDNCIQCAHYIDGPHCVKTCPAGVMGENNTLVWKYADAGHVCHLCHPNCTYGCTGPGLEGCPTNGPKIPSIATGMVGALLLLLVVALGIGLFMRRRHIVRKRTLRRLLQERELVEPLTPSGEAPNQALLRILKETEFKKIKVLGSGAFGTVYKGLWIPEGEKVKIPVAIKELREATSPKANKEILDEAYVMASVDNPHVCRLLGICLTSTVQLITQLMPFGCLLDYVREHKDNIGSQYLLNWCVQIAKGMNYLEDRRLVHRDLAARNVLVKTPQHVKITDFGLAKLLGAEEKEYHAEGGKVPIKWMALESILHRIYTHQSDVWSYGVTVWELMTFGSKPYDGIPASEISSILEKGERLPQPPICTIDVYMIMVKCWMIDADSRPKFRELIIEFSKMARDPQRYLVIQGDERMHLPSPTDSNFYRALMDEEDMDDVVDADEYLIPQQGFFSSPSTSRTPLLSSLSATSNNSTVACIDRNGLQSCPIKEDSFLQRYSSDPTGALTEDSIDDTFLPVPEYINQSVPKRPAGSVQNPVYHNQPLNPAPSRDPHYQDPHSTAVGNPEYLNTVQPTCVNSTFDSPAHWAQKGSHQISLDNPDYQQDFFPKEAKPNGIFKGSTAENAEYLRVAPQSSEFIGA

Compound	Biochem EGFR % Inhibition (P.167) (EGFR) [%]	PDGF Kinase % Inhibition (P.119) (PDGF-R) [%]
CCN(CC)c1ccc(C=C2C(=O)Nc3ccc(S(=O)(=O)NC)cc32)c(O)c1 [10734/D05]	−9.6	8.2
CNS(=O)(=O)c1ccc2c(c1)C(=Cc1ccc([N+](=O)[O-])cc1)C(=O)N2 [10734/D06]	1.3	−9.1
CNS(=O)(=O)c1ccc2c(c1)C(=Cc1cc(Br)cc(Br)c1O)C(=O)N2 [10734/D07]	51.1	28.1
CNS(=O)(=O)c1ccc2c(c1)C(=Cc1cccc(F)c1O)C(=O)N2 [10734/D08]	−13.7	2.0
CNS(=O)(=O)c1ccc2c(c1)C(=Cc1ccc(O)c(Br)c1)C(=O)N2 [10734/D09]	21.0	42.2
CNS(=O)(=O)c1ccc2c(c1)C(=Cc1ccc(C(C)(C)C)cc1)C(=O)N2 [10734/D10]	−4.4	9.9
CNS(=O)(=O)c1ccc2c(c1)C(=Cc1ccc(Br)s1)C(=O)N2 [10734/D11]	14.6	17.0
CCOc1cccc(C=C2C(=O)Nc3ccc(S(=O)(=O)Nc4ccc(C(F)(F)F)cc4)cc32)c1O [10734/E02]	−10.8	50.1
O=C1Nc2ccc(S(=O)(=O)Nc3ccc(C(F)(F)F)cc3)cc2C1=Cc1cc(Cl)cc(Cl)c1O [10734/E03]	55.0	27.2
O=C1Nc2ccc(S(=O)(=O)Nc3ccc(C(F)(F)F)cc3)cc2C1=Cc1cc(Cl)ccc1O [10734/E04]	−7.8	26.7
CCN(CC)c1ccc(C=C2C(=O)Nc3ccc(S(=O)(=O)Nc4ccc(C(F)(F)F)cc4)cc32)c(O)c1 [10734/E05]	7.9	17.9
O=C1Nc2ccc(S(=O)(=O)Nc3ccc(C(F)(F)F)cc3)cc2C1=Cc1ccc([N+](=O)[O-])cc1 [10734/E06]	6.3	13.5
O=C1Nc2ccc(S(=O)(=O)Nc3ccc(C(F)(F)F)cc3)cc2C1=Cc1cc(Br)cc(Br)c1O [10734/E07]	82.4	8.2
O=C1Nc2ccc(S(=O)(=O)Nc3ccc(C(F)(F)F)cc3)cc2C1=Cc1cccc(F)c1O [10734/E08]	24.2	13.0
O=C1Nc2ccc(S(=O)(=O)Nc3ccc(C(F)(F)F)cc3)cc2C1=Cc1ccc(O)c(Br)c1 [10734/E09]	73.0	1.1
CC(C)(C)c1ccc(C=C2C(=O)Nc3ccc(S(=O)(=O)Nc4ccc(C(F)(F)F)cc4)cc32)cc1 [10734/E10]	−5.0	29.8
O=C1Nc2ccc(S(=O)(=O)Nc3ccc(C(F)(F)F)cc3)cc2C1=Cc1ccc(Br)s1 [10734/E11]	−8.0	16.1
CCOc1cccc(C=C2C(=O)Nc3ccc(S(=O)(=O)N4CCOCC4)cc32)c1O [10734/F02]	0.7	10.4
O=C1Nc2ccc(S(=O)(=O)N3CCOCC3)cc2C1=Cc1cc(Cl)cc(Cl)c1O [10734/F03]	24.8	−24.1
O=C1Nc2ccc(S(=O)(=O)N3CCOCC3)cc2C1=Cc1cc(Cl)ccc1O [10734/F04]	3.9	25.0

Compound	Biochem EGFR % Inhibition (P.167) (EGFR) [%]	PDGF Kinase % Inhibition (P.119) (PDGF-R) [%]
CCN(CC)c1ccc(C=C2C(=O)Nc3ccc(S(=O)(=O)N4CCOCC4)cc32)c(O)c1 [10734/F05]	−15.6	−1.1
O=C1Nc2ccc(S(=O)(=O)N3CCOCC3)cc2C1=Cc1ccc([N+](=O)[O-])cc1 [10734/F06]	−17.1	−21.4
O=C1Nc2ccc(S(=O)(=O)N3CCOCC3)cc2C1=Cc1cc(Br)cc(Br)c1O [10734/F07]	33.7	−5.1
O=C1Nc2ccc(S(=O)(=O)N3CCOCC3)cc2C1=Cc1cccc(F)c1O [10734/F08]	−23.6	−6.0
O=C1Nc2ccc(S(=O)(=O)N3CCOCC3)cc2C1=Cc1ccc(O)c(Br)c1 [10734/F09]	3.1	−17.4
CC(C)(C)c1ccc(C=C2C(=O)Nc3ccc(S(=O)(=O)N4CCOCC4)cc32)cc1 [10734/F10]	−8.3	25.8
O=C1Nc2ccc(S(=O)(=O)N3CCOCC3)cc2C1=Cc1ccc(Br)s1 [10734/F11]	−15.6	16.1
CCOc1cccc(C=C2C(=O)Nc3ccc(CCCl)cc32)c1O [10734/G02]	3.4	14.8
O=C1Nc2ccc(CCCl)cc2C1=Cc1cc(Cl)cc(Cl)c1O [10734/G03]	82.8	−3.8
O=C1Nc2ccc(CCCl)cc2C1=Cc1cc(Cl)ccc1O [10734/G04]	62.9	16.1
CCN(CC)c1ccc(C=C2C(=O)Nc3ccc(CCCl)cc32)c(O)c1 [10734/G05]	−0.3	2.9
O=C1Nc2ccc(CCCl)cc2C1=Cc1ccc([N+](=O)[O-])cc1 [10734/G06]	12.5	−18.8
O=C1Nc2ccc(CCCl)cc2C1=Cc1cc(Br)cc(Br)c1O [10734/G07]	51.1	−25.0
O=C1Nc2ccc(CCCl)cc2C1=Cc1cccc(F)c1O [10734/G08]	33.7	0.2
O=C1Nc2ccc(CCCl)cc2C1=Cc1ccc(O)c(Br)c1 [10734/G09]	21.4	−7.7
CC(C)(C)c1ccc(C=C2C(=O)Nc3ccc(CCCl)cc32)cc1 [10734/G10]	3.8	9.9
O=C1Nc2ccc(CCCl)cc2C1=Cc1ccc(Br)s1 [10734/G11]	4.1	−25.4
CCOc1cccc(C=C2C(=O)Nc3c(Br)cc(Br)c(C)c32)c1O [10734/H02]	−11.9	−10.8
Cc1c(Br)cc(Br)c2c1C(=Cc1cc(Cl)cc(Cl)c1O)C(=O)N2 [10734/H03]	6.6	8.6
Cc1c(Br)cc(Br)c2c1C(=Cc1cc(Cl)ccc1O)C(=O)N2 [10734/H04]	5.9	6.0
